In patent publication US20240000119A1, “MEGASTIGMANE DERIVATIVE COMPOSITIONS AND METHODS FOR TASTE MODULATION” (INTERNATIONAL FLAVORS & FRAGRANCES, priority 2020, published 2024):

Tests used:
[1] = Enhancement of sucrose sweetness: flavor profile of sucrose base solution with added megastigmane derivative; settings: 0.5 ppm in sucrose base solution (4%)
Experimental: (§1) A sucrose base solution (4%) (“base”) was prepared in water.
Solutions of lauroside A, ampelopsisionoside, bridelionoside F and actinidioionoside were prepared in water (0.01%).
The solutions of lauroside A, ampelopsisionoside, bridelionoside F and actinidioionoside (0.01%) were added to the base, respectively, to a final concentration of 0.5 ppm. The flavor profiles of the sucrose base solution with added megastigmane derivatives are reported in the following: […]

[2] = Flavor profiles of megastigmane derivative solutions in water compared with sucrose solution
Description: The flavor profiles of various megastigmane derivative solutions in water including lauroside A (0.5 ppm), ampelopsisionoside (0.5 ppm), bridelionoside F (0.5 ppm), actinidioionoside (0.5 ppm) and roseoside solutions (0.5 ppm) were each compared with that of sucrose solution (1.5%).

[3] = Enhancement of mouthfeel by roseoside in water
[4] = Sweetness enhancement at different concentrations: flavor profile of sucrose base solution with added roseoside
Experimental: as §1
Roseoside was added to the base to provide a series of solutions with concentrations ranging from 1 ppb to 5 ppm. The flavor profile of the sucrose solution with added roseoside is reported in the following: […]

[5] = 0.5 ppm in water, compared with sucrose solution (1.5%)

Compound	Flavor Profile [1]	sweet taste (flavor profile) [2, 5]	other results
CC(/C=C/C1(O)C(C)(C)CC(O)CC1(C)O)OC1OC(CO)C(O)C(O)C1O (stereo not shown) [Actinidioionoside, actinidioionoside]	Enhanced sweetness and mouthfeel	none of the megastigmane derivation solutions exhibited a sweet taste	–
CC(/C=C/C1(O)C(C)CC(=O)CC1(C)C)OC1OC(CO)C(O)C(O)C1O (stereo not shown) [Ampelopsisionoside, ampelopsisionoside]	–	none of the megastigmane derivation solutions exhibited a sweet taste	–
CC1=C(/C=C/C(C)OC2OC(CO)C(O)C(O)C2O)C(C)(C)CC(O)C1O (stereo not shown) [Bridelionoside F, bridelionoside F]	Enhanced sweetness and mouthfeel with para	none of the megastigmane derivation solutions exhibited a sweet taste	–
CC(/C=C/C1(O)C(C)CC(=O)CC1(C)C)OC1OC(CO)C(O)C(O)C1O (stereo not shown) [Lauroside A, lauroside A]	Enhanced sweetness and mouthfeel, mouth coating,	none of the megastigmane derivation solutions exhibited a sweet taste	–
CC1=CC(=O)CC(C)(C)C1(O)/C=C/C(C)OC1OC(CO)C(O)C(O)C1O (stereo not shown) [Roseoside, roseoside]	–	none of the megastigmane derivation solutions exhibited a sweet taste	Flavor Profile ([3]; 0.5 ppm in water): Slight astringency, not sweet; Flavor Profile ([3]; 2 ppm in water): Slight astringency, very slight bitterness, slightly; Flavor Profile ([4]; 1 ppb in sucrose base solution (4%)): Slightly enhanced sweetness and viscous mouthfeel; Flavor Profile ([4]; 1 ppm in sucrose base solution (4%)): Slightly enhanced and lingering sweetness, viscous; Flavor Profile ([4]; 5 ppm in sucrose base solution (4%)): More enhanced and lingering sweetness, slight; Flavor Profile ([4]; 10 ppb in sucrose base solution (4%)): Slightly enhanced and lingering sweetness, viscous; Flavor Profile ([4]; 100 ppb in sucrose base solution (4%)): Slightly enhanced and lingering sweetness, viscous
OC[C@H]1O[C@@](CO)(O[C@H]2O[C@H](CO)[C@@H](O)[C@H](O)[C@H]2O)[C@@H](O)[C@@H]1O [sucrose, reference compound]	–	–	sweet taste (flavor profile) ([2]; sucrose solution (1.5%)): tasted slightly sweet
